Results: US8937072B2, “Substituted cyanoaniline compounds, preparation and use thereof” (Sinochem Corporation, priority 2011, dated 2015)
Read-outs that look alike come from different tables or passages of the source.

Experiments:
rice blast = experiment: microbe, parasite or virus in culture; assay type: cell-based; conditions: for the inhibition rate against rice blast (%) 0.03 mg/L: Table 21, 0.03 mg/L; for the inhibition rate against rice blast (%) 0.1 mg/L: Table 21, 0.1 mg/L; for the inhibition rate against rice blast (%) 0.3 mg/L: Table 21, 0.3 mg/L; for inhibition at 0.3 µg/mL / inhibition at 0.9 µg/mL / inhibition at 0.03 µg/mL / inhibition at 0.1 µg/mL / inhibition at 25 µg/mL: Pyricularia oryzae; for inhibition at 0.03 µg/mL: read-out: the inhibition rate against rice blast (%) 0.03 mg/L; for inhibition at 0.1 µg/mL: read-out: the inhibition rate against rice blast (%) 0.1 mg/L
cucumber gray mold = experiment: Activity in vitro (96-well, High Through Put): inhibition rate against cucumber gray mold; assay type: cell-based; conditions: for inhibition at 25 µg/mL: dose 25 mg/L
Experimental: The method is as followed: High Through Put is used in the test. The compound is dissolved in a proper solvent to become a testing solution whose concentration is designed. The solvent is selected from acetone, methanol, DMF and so on according to their dissolving capability to the sample. In a no animalcule condition, the testing solution and pathogens suspension are added into the cells of 96 cells culture board, which then should be placed in the constant temperature box. 24 hours later, pathogen germination or growth can be investigated by eyeballing, and the activity in vitro of the compound is evaluated based on germination or growth of control treatment.

corn rust = experiment: Protectant activity in vivo (whole plant) against corn rust; conditions: for pest or weed control at 6.25 µg/mL / pest or weed control at 25 µg/mL / pest or weed control at 100 µg/mL / pest or weed control at 400 µg/mL: Zea mays, 168 h
Outline: (§1)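 Compound stock in organic solvent (≤5% v/v) diluted in water with 0.1% Tween-80 and sprayed onto whole host plants. Fungal inoculation 24 h later; humidity chamber then greenhouse as the pathogen requires. Activity rated visually, usually after 7 days.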

cucumber downy mildew = experiment: Protectant activity in vivo (whole plant) against cucumber downy mildew
Outline: as §1

[1] = read-out: inhibition rate against rice blast
[2] = read-out: the inhibition rate against rice blast (%) 0.3 mg/L
[3] = 0.9 mg/L, read-out: the inhibition rate against cucumber gray mold (%)
[4] = 2.8 mg/L, read-out: the inhibition rate against cucumber gray mold (%)
[5] = 8.3 mg/L, read-out: the inhibition rate against cucumber gray mold (%)
[6] = in vitro, dose 2.8 mg/L, read-out: inhibition rate against cucumber gray mold
[7] = Cucumis sativus, 168 h, 12.5 mg/L
[8] = Cucumis sativus, 168 h, 25 mg/L, read-out: the protectant activity (%) against cucumber downy mildew
[9] = Cucumis sativus, 168 h, 50 mg/L, read-out: the protectant activity (%) against cucumber downy mildew
[10] = Cucumis sativus, 168 h, 100 mg/L, read-out: the protectant activity (%) against cucumber downy mildew
[11] = Cucumis sativus, 168 h, dose 25 mg/L, read-out: protectant activity against cucumber downy mildew in vivo
[12] = Cucumis sativus, 168 h, dose 50 mg/L, read-out: protectant activity against cucumber downy mildew in vivo
[13] = 400 mg/L, read-out: the protectant activity (%) against corn rust
[14] = dose 400 mg/L, read-out: protectant activity against corn rust in vivo

SMILES | the inhibition rate against rice blast (%) 0.03 mg/L (rice blast) [%] | the inhibition rate against rice blast (%) 0.1 mg/L (rice blast) [%] | the inhibition rate against rice blast (%) 0.3 mg/L (rice blast) [%] | the inhibition rate against cucumber gray mold (%) (cucumber gray mold; 0.3 mg/L) | the inhibition rate against cucumber gray mold (%) (cucumber gray mold; 0.9 mg/L) | the inhibition rate against cucumber gray mold (%) (cucumber gray mold; 2.8 mg/L) | the inhibition rate against cucumber gray mold (%) (cucumber gray mold; 8.3 mg/L) | protectant activity against corn rust in vivo (corn rust; dose 400 mg/L) [%] | the protectant activity (%) against corn rust (corn rust; 6.25 mg/L) [%] | the protectant activity (%) against corn rust (corn rust; 25 mg/L) [%] | the protectant activity (%) against corn rust (corn rust; 100 mg/L) [%] | the protectant activity (%) against corn rust (corn rust; 400 mg/L) [%] | protectant activity against cucumber downy mildew in vivo (cucumber downy mildew; dose 50 mg/L) [%] | inhibition at 0.03 µg/mL (rice blast) [%] | inhibition at 0.1 µg/mL (rice blast) [%] | inhibition at 0.3 µg/mL (rice blast; [2]) [%] | inhibition at 0.3 µg/mL (cucumber gray mold; 0.3 mg/L) [%] | inhibition at 0.9 µg/mL (cucumber gray mold; [3]) [%] | inhibition at 2.8 µg/mL (cucumber gray mold; [4]) [%] | inhibition at 8.3 µg/mL (cucumber gray mold; [5]) [%] | other results
N#Cc1c(Cl)c(Cl)c(Nc2c(F)cc([N+](=O)[O-])cc2F)c(Cl)c1C#N [Compound A-43] | 100 | 100 | 100 | 100 | 100 | 100 | 100 | 100 |  |  |  |  |  |  |  |  |  |  |  |  | 
N#Cc1c(Cl)c(Cl)c(Nc2c(Cl)cncc2Cl)c(Cl)c1C#N [Compound A-87] | 100 | 100 | 100 |  |  |  |  |  | 50 | 80 | 100 | 100 |  |  |  |  |  |  |  |  | inhibition rate against cucumber gray mold (cucumber gray mold; in vitro, dose 8.3 mg/L): 80%; protectant activity against corn rust in vivo (corn rust; dose 100 mg/L): 100%
N#Cc1c(Cl)c(Cl)c(Nc2c(F)cc([N+](=O)[O-])cc2Cl)c(C#N)c1Cl [Compound B-53] | 100 | 100 | 100 | 0 | 100 | 100 | 100 |  | 30 | 50 | 80 | 100 | 98 |  |  |  |  |  |  |  | protectant activity against cucumber downy mildew in vivo (cucumber downy mildew; dose 100 mg/L): 100%; protectant activity against cucumber downy mildew in vivo (cucumber downy mildew; dose 400 mg/L): 100%
N#Cc1c(Cl)c(Cl)c(Nc2c(Cl)cc([N+](=O)[O-])cc2Cl)c(C#N)c1Cl [Compound B-54] | 0 | 0 | 100 | 100 | 100 | 100 | 100 | 100 | 65 | 80 | 90 | 100 | 100 |  |  |  |  |  |  |  | inhibition rate against rice blast (rice blast; in vitro, dose 0.3 mg/L): 80%; inhibition rate against cucumber gray mold (cucumber gray mold; in vitro, dose 0.3 mg/L): 80%; the protectant activity (%) against cucumber downy mildew (cucumber downy mildew; 25 mg/L): 75%; the protectant activity (%) against cucumber downy mildew (cucumber downy mildew; 50 mg/L): 100%; the protectant activity (%) against cucumber downy mildew (cucumber downy mildew; 100 mg/L): 100%; protectant activity against cucumber downy mildew in vivo (cucumber downy mildew; dose 100 mg/L): 100%; protectant activity against cucumber downy mildew in vivo (cucumber downy mildew; dose 400 mg/L): 100%
Cc1cc([N+](=O)[O-])cc(Cl)c1Nc1c(Cl)c(Cl)c(C#N)c(Cl)c1C#N [Compound B-58] | 0 | 50 | 100 | 80 | 100 | 100 | 100 | 100 |  |  |  |  | 100 |  |  |  |  |  |  |  | inhibition rate against cucumber gray mold (cucumber gray mold; in vitro, dose 0.3 mg/L): 80%; the protectant activity (%) against cucumber downy mildew (cucumber downy mildew; 12.5 mg/L): 98%; the protectant activity (%) against cucumber downy mildew (cucumber downy mildew; 25 mg/L): 98%; the protectant activity (%) against cucumber downy mildew (cucumber downy mildew; 50 mg/L): 100%; the protectant activity (%) against cucumber downy mildew (cucumber downy mildew; 100 mg/L): 100%; protectant activity against cucumber downy mildew in vivo (cucumber downy mildew; dose 12.5 mg/L): 98%; protectant activity against cucumber downy mildew in vivo (cucumber downy mildew; dose 100 mg/L): 100%; protectant activity against cucumber downy mildew in vivo (cucumber downy mildew; dose 400 mg/L): 100%
COc1c(Cl)c(Nc2c(Cl)cc([N+](=O)[O-])cc2Cl)c(C#N)c(Cl)c1C#N [Compound B-74] | 0 | 50 | 100 |  | 80 | 100 | 100 | 100 | 40 | 70 | 95 | 100 | 98 |  |  |  |  |  |  |  | the protectant activity (%) against cucumber downy mildew (cucumber downy mildew; 25 mg/L): 80%; the protectant activity (%) against cucumber downy mildew (cucumber downy mildew; 50 mg/L): 98%; the protectant activity (%) against cucumber downy mildew (cucumber downy mildew; 100 mg/L): 100%; protectant activity against cucumber downy mildew in vivo (cucumber downy mildew; dose 100 mg/L): 100%; protectant activity against cucumber downy mildew in vivo (cucumber downy mildew; dose 400 mg/L): 100%
N#Cc1c(Cl)c(Cl)c(C#N)c(Nc2c(F)cc([N+](=O)[O-])cc2Cl)c1Cl [Compound C-46] | 100 | 100 | 100 | 100 | 100 | 100 | 100 | 80 |  |  |  |  |  |  |  |  |  |  |  |  | 
COc1ccc(Nc2c(F)c(F)c(C#N)c(F)c2C#N)cc1 [KC10] |  |  |  |  |  |  |  |  |  |  |  |  |  | 0 | 0 | 0 | 0 | 0 | 0 | 80 | inhibition at 0.3 µg/mL (rice blast; [1]): 0%; inhibition at 0.9 µg/mL (rice blast; [1]): 50%; inhibition at 2.8 µg/mL (cucumber gray mold; [6]): 0%; pest or weed control at 12.5 µg/mL (cucumber downy mildew; [7]): 0%; pest or weed control at 25 µg/mL (cucumber downy mildew; [8]): 0%; pest or weed control at 50 µg/mL (cucumber downy mildew; [9]): 10%; pest or weed control at 100 µg/mL (cucumber downy mildew; [10]): 20%; pest or weed control at 25 µg/mL (cucumber downy mildew; [11]): 0%; pest or weed control at 50 µg/mL (cucumber downy mildew; [12]): 10%
N#Cc1c(F)c(F)c(Nc2ccc([N+](=O)[O-])cc2)c(C#N)c1F [KC11] |  |  |  |  |  |  |  |  |  |  |  |  |  | 0 | 0 | 0 | 0 | 0 | 0 | 50 | inhibition at 0.9 µg/mL (rice blast; [1]): 0%; inhibition at 2.8 µg/mL (cucumber gray mold; [6]): 0%; pest or weed control at 12.5 µg/mL (cucumber downy mildew; [7]): 0%; pest or weed control at 25 µg/mL (cucumber downy mildew; [8]): 0%; pest or weed control at 50 µg/mL (cucumber downy mildew; [9]): 0%; pest or weed control at 100 µg/mL (cucumber downy mildew; [10]): 0%; pest or weed control at 25 µg/mL (cucumber downy mildew; [11]): 0%; pest or weed control at 50 µg/mL (cucumber downy mildew; [12]): 0%
CN(C)c1ccc(Nc2c(Cl)c(F)c(C#N)c(F)c2C#N)cc1 [KC25] |  |  |  |  |  |  |  |  |  |  |  |  |  | 0 | 0 | 0 | 0 | 0 | 0 | 0 | inhibition at 25 µg/mL (rice blast; [1]): 0%; inhibition at 25 µg/mL (cucumber gray mold; in vitro): 0%; pest or weed control at 12.5 µg/mL (cucumber downy mildew; [7]): 0%; pest or weed control at 25 µg/mL (cucumber downy mildew; [8]): 0%; pest or weed control at 50 µg/mL (cucumber downy mildew; [9]): 0%; pest or weed control at 100 µg/mL (cucumber downy mildew; [10]): 0%; pest or weed control at 400 µg/mL (cucumber downy mildew; Cucumis sativus, 168 h, dose 400 mg/L): 0%; pest or weed control at 6.25 µg/mL (corn rust; 6.25 mg/L): 0%; pest or weed control at 25 µg/mL (corn rust; 25 mg/L): 0%; pest or weed control at 100 µg/mL (corn rust; 100 mg/L): 0%; pest or weed control at 400 µg/mL (corn rust; [13]): 0%; pest or weed control at 400 µg/mL (corn rust; [14]): 0%
CCOc1ccccc1Nc1c(F)c(F)c(C#N)c(C#N)c1F [KC26] |  |  |  |  |  |  |  |  |  |  |  |  |  | 0 | 0 | 0 | 0 | 0 | 0 | 0 | inhibition at 25 µg/mL (rice blast; [1]): 0%; inhibition at 25 µg/mL (cucumber gray mold; in vitro): 0%; pest or weed control at 6.25 µg/mL (corn rust; 6.25 mg/L): 0%; pest or weed control at 25 µg/mL (corn rust; 25 mg/L): 0%; pest or weed control at 100 µg/mL (corn rust; 100 mg/L): 0%; pest or weed control at 400 µg/mL (corn rust; [13]): 0%; pest or weed control at 400 µg/mL (corn rust; [14]): 0%
N#Cc1c(Cl)c(Cl)c(Cl)c(C#N)c1Cl [chlorothalonil] |  |  |  |  |  |  |  |  |  |  |  |  |  | 0 | 30 | 100 | 80 | 100 | 100 | 100 | pest or weed control at 25 µg/mL (cucumber downy mildew; [8]): 30%; pest or weed control at 50 µg/mL (cucumber downy mildew; [9]): 80%; pest or weed control at 100 µg/mL (cucumber downy mildew; [10]): 100%; pest or weed control at 400 µg/mL (corn rust; [13]): 50%
